This is an account of results in paper PMC5986712, “Aminobenzothiazole derivatives stabilize the thermolabile p53 cancer mutant Y220C and show anticancer activity in p53-Y220C cell lines” (European Journal of Medicinal Chemistry, 2018).

Data set [1] concerns the target T1, stabilized p53-Y220C DBD (residues 94–312) (Homo sapiens, UniProt P04637, M133L/N239Y/N268D/V203A/Y220C).
T1 construct: Stabilized p53-Y220C DBD (residues 94–312) was expressed and purified; 6xHis / lipoyl domain / TEV protease cleavage site (N, cleaved yes); made in house; host or cells: E. coli C41
In words: Isothermal titration calorimetry (ITC). To be noted: for Kd: ITC. The format is binding. How it is done:
Isothermal Titration Calorimetry (ITC). ITC experiments were conducted as described. The cell unit contained 50 μM protein in a 25 mM KPi (pH 7.2), 150 mM NaCl, 1 mM TCEP, and 5% (v/v) DMSO assay buffer. The syringe contained 2–5 mM compound in the same buffer.
(ITC needs no label: the signal is the heat of the interaction.)

In data set [2] the target is T1, stabilized p53-Y220C DBD (residues 94–312). In words: Differential scanning fluorimetry (DSF), thermal stabilization of Y220C. In kind it is binding. To be noted: 8 μM protein, 10 × SYPRO Orange, 250 μM ligand. How it is done:
DSF was performed as described. […] All samples were measured in triplicate.
On the technique in general: In DSF a fluorescence change marks the thermal transition of the protein.

For the next data set, the system named is BXPC-3 cells (p53-Y220C). Nature of the data set: Cell viability assay, BXPC3. To be noted: Homo sapiens, BXPC-3, 72 h, read-out: IC50 BXPC3.
Another data set deals with NUGC3 cells (p53-Y220C). In words: Cell viability assay (CellTiter-Fluor / CellTiter-Glo 2.0), NUGC3. The format is cell-based, human. The settings on record: Homo sapiens, NUGC-3; 72 h, Y220C cell line. How it is done:
(§1) We also envisaged that masking the carboxylate of MB710 as a simple ethylamide MB725 might influence cell permeability and uptake of the scaffold.
(§2) All cell lines were cultured as previously described. Cell viability was measured in quadruplicate (technical replicates) using the CellTiter-Fluor or CellTiter-Glo 2.0 cell viability assay kits (Promega, USA) as previously described.

In data set [3] the test system is WI38 cells (non-cancerous fibroblast, p53 WT). In words: Cell viability assay, WI38. To be noted: Homo sapiens, WI-38, 72 h, read-out: IC50 WI38.
Data set [4] concerns NUGC4 cells (wild-type p53). In words: Cell viability assay, NUGC4. The format is cell-based. To be noted: Homo sapiens, NUGC-4; 72 h, p53 WT. As to the method: as §1, §2
Data set [5] is described as follows: Solubility (qualitative observation). In kind it is physicochemical.
The test system of another data set is p53 cancer mutant Y220C. Nature of the data set: Binding affinity to the Y220C pocket, values taken from earlier papers (ITC/NMR). The settings on record: Kd ratio.

For orientation: Kd means the constant that tells how readily two partners part at equilibrium. A low value points to tighter binding. By ΔTm is commonly meant the shift of the melting midpoint relative to a reference. Turning to `O=C(O)c1cc(OCCO)c(-n2cccc2)c(I)c1O` [Compound 54, 2-hydroxy-5-(2-hydroxyethoxy)-3-iodo-4-(1H-pyrrol-1-yl)benzoic acid], the Kd in data set [1] turned out to be 726 µM. Further, in data set [2], the ΔTm at 250 µM was determined as 0.6 °C.

Usually IC50 stands for the concentration that inhibits the measured activity by half. For `Cn1cc(-c2ccccc2)c(-n2cccc2)n1` [Compound 2], the half-maximal inhibitory concentration (IC50) was 57 µM in the data set with BXPC-3 cells (p53-Y220C), 43 µM with NUGC3 cells (p53-Y220C), ~120 µM in data set [3] and > 120 µM in data set [4].

On to `O=C(NO)c1cc(I)c(-n2cccc2)c(I)c1O` [Compound 15, N,2-dihydroxy-3,5-diiodo-4-(1H-pyrrol-1-yl)benzamide], for which the Kd in data set [1] worked out at 139 µM. Besides, in data set [2], the shift in melting temperature (ΔTm) at 250 µM turned out to be 0.8 °C.

With `CCN(CC)C1CCN(Cc2cc(C#CCNc3ccccc3)cc(I)c2O)CC1` [Compound 3], the IC50 in the data set on BXPC-3 cells (p53-Y220C) was 11 µM; with NUGC3 cells (p53-Y220C), 6 µM; in data set [3] it was 7 µM; in data set [4] it was 9 µM.

In data set [1], `CNC(=O)c1cc(I)c(-n2cccc2)c(I)c1O` [Compound 12, 2-hydroxy-3,5-diiodo-N-methyl-4-(1H-pyrrol-1-yl)benzamide] yielded a Kd of 70 µM. Also, the ΔTm at 250 µM in data set [2] worked out at 0.9 °C. For the same compound, the “solubility (in words)” value in data set [5] is “substantially less soluble than carboxylic acid 9”.

For `COC(=O)c1cc(I)c(-n2cccc2)c(I)c1O` [Compound 8, Methyl 2-hydroxy-3,5-diiodo-4-(1H-pyrrol-1-yl)benzoate], the ΔTm at 250 µM in data set [2] was -0.1 °C.

As to `O=C(O)c1cc(-c2ccccc2)c(-n2cccc2)c(I)c1O` [Compound 33, 4-hydroxy-5-iodo-6-(1H-pyrrol-1-yl)-[1,1'-biphenyl]-3-carboxylic acid], binding in data set [1] was characterised by a dissociation constant (Kd) of 306 µM. Moreover, the ΔTm at 250 µM in data set [2] was found to be 1 °C.

`CN1CCN(C(=O)c2cc(I)c(-n3cccc3)c(I)c2O)CC1` [Compound 11, (2-hydroxy-3,5-diiodo-4-(1H-pyrrol-1-yl)phenyl)(4-methylpiperazin-1-yl)methanone] came in with a Kd in data set [1] of 30 µM. Besides, the ΔTm at 250 µM in data set [2] turned out to be 1.2 °C.

Take `O=C(O)c1cc(I)cc(I)c1O` [Compound 4, 2-hydroxy-3,5-diiodobenzoic acid, reference compound]: in data set [5], the “solubility (in words)” value is listed as “water soluble”.

In data set [1], `O=C(O)c1cc(OCCc2ccccc2)c(-n2cccc2)c(I)c1O` [Compound 55, 2-hydroxy-3-iodo-5-phenethoxy-4-(1H-pyrrol-1-yl)benzoic acid] registered a Kd of 116 µM. The ΔTm at 250 µM in data set [2] is 1 °C.

`C=CCOc1cc(C(=O)O)c(O)c(I)c1-n1cccc1` [Compound 51, 5-(allyloxy)-2-hydroxy-3-iodo-4-(1H-pyrrol-1-yl)benzoic acid] yielded a Kd in data set [1] of 33 µM. In data set [2], the thermal shift (ΔTm) at 250 µM was found to be 1.8 °C.

For `CN(C)Cc1cc(I)c(-n2cccc2)c(I)c1O` [Compound 17, 6-((dimethylamino)methyl)-2,4-diiodo-3-(1H-pyrrol-1-yl)phenol], in data set [1], the dissociation constant (Kd) was 60 µM. The ΔTm at 250 µM in data set [2] turned out to be 0.9 °C.

In data set [1], `COc1ccc(-c2cc(C(=O)O)c(O)c(I)c2-n2cccc2)cc1` [Compound 35, 4-hydroxy-5-iodo-4'-methoxy-6-(1H-pyrrol-1-yl)-[1,1'-biphenyl]-3-carboxylic acid] showed a Kd of 122 µM. Further, in data set [2], the shift in melting temperature (ΔTm) at 250 µM is 1 °C.

On to `CCN(CC)c1nc2c(C(=O)OC)c(O)c(I)c(-n3cccc3)c2s1` [Compound 71, Methyl 2-(diethylamino)-5-hydroxy-6-iodo-7-(1H-pyrrol-1-yl)benzo[d]thiazole-4-carboxylate], for which the “solubility (in words)” value in data set [5] is recorded as “reduced solubility”.

In data set [1], `CC(C)COc1cc(C(=O)O)c(O)c(I)c1-n1cccc1` [Compound 56, 2-hydroxy-3-iodo-5-isobutoxy-4-(1H-pyrrol-1-yl)benzoic acid] yielded a dissociation constant Kd of 30 µM. Besides, the ΔTm at 250 µM in data set [2] was 1.4 °C.

The compound `O=C(O)c1cc(OCCC(F)(F)F)c(-n2cccc2)c(I)c1O` [Compound 53, 2-hydroxy-3-iodo-4-(1H-pyrrol-1-yl)-5-(3,3,3-trifluoropropoxy)benzoic acid] had a Kd in data set [1] of 108 µM. For the same compound, the thermal shift (ΔTm) at 250 µM in data set [2] came out at 1.4 °C.

As for `CN(C)CCNC(=O)c1cc(I)c(-n2cccc2)c(I)c1O` [Compound 10, N-(2-(dimethylamino)ethyl)-2-hydroxy-3,5-diiodo-4-(1H-pyrrol-1-yl)benzamide], the ΔTm at 250 µM in data set [2] was 1.3 °C. For the same compound, the “solubility (in words)” value in data set [5] is “substantially less soluble than carboxylic acid 9”.

In data set [1], `CCOc1cc(C(=O)O)c(O)c(I)c1-n1cccc1` [Compound 49, 5-ethoxy-2-hydroxy-3-iodo-4-(1H-pyrrol-1-yl)benzoic acid] registered a Kd of 63 µM. For the same compound, in data set [1] (Kd ratio versus parent iodine (21 μM)), the “times less potent than the parent iodine” value came to 3. Moreover, the ΔTm at 250 µM in data set [2] was 1.3 °C.

`O=C(O)c1cc(-c2ccc(F)cc2)c(-n2cccc2)c(I)c1O` [Compound 34, 4'-fluoro-4-hydroxy-5-iodo-6-(1H-pyrrol-1-yl)-[1,1'-biphenyl]-3-carboxylic acid]: in data set [1], the affinity, expressed as Kd, was 113 µM. Moreover, in data set [2], the shift in melting temperature (ΔTm) at 250 µM turned out to be 0.8 °C.

As for `O=C(O)c1cc(I)c(-n2cccc2)c(I)c1O` [Compound 9, 2-hydroxy-3,5-diiodo-4-(1H-pyrrol-1-yl)benzoic acid], the “fold more potent than parent fragment 4” value with p53 cancer mutant Y220C is 40 fold.

`O=c1[nH][nH]c2c(I)c(-n3cccc3)c(I)cc12` [Compound 21, 5,7-diiodo-6-(1H-pyrrol-1-yl)-1,2-dihydro-3H-indazol-3-one]: in data set [1], binding was put at a Kd of 50 µM. For the same compound, the ΔTm at 250 µM in data set [2] came out at 1.5 °C.
